How the values were obtained:
[1] = tested on: SJ-G2 (glioblastoma) cancer cells; test: MTT growth inhibition assay, SJ-G2; format: cell-based; conditions: for GI50: MTT, 72 h, ± standard error, read-out: Growth Inhibition Concentration, GI50
Protocol: (§1) The Schiff bases and their organotin(IV) compounds were screened for in vitro cytotoxicity against a panel of 12 cancer cell lines: EJ-28 (muscle invasive bladder), RT-112 (minimum-invasive bladder), HT29 (colon), U87 and SJ-G2 (glioblastoma), MCF-7 (breast), A2780 (ovarian), H460 (lung), A431 (skin), DU145 (prostate), BE2-C (neuroblastoma), MIA (pancreatic) and one normal breast cell line (MCF-10A) using the MTT metabolic assay (Figure 6). After 72 h of incubation, a dose-dependent […] effect towards the cancer cell lines was measured at very low micromolar (µM) concentrations of the compounds. The growth inhibition concentration of the Schiff bases and their organotin(IV) compounds required to inhibit 50% cell proliferation relative to the cells that were treated with DMSO (control) are given in Table 2. The stability of these compounds was assessed in DMSO as well as in a mixture of DMSO-H2O. The absorbance obtained from UV-vis spectroscopy analysis was monitored for 72 h, and an unchanged pattern in the spectra was indicative that the compounds were stable in both the solvent systems tested.
(§2) For HT29 (colon), U87 and SJ-G2 (glioblastoma), MCF-7 (breast), A2780 (ovarian), H460 (lung), A431 (skin), Du145 (prostate), BE2-C (neuroblastoma), MIA (pancreas) cell lines and one normal breast cell line, MCF-10A (normal breast), the MTT assays were performed using the following method:
(§3) Stock solutions were prepared as follows and stored at −20 °C: Trial compounds were stored as 10 mM solutions in DMSO. All cell lines were cultured in a humidified atmosphere 5% CO2 at 37 °C. The cancer cell lines were maintained in Dulbecco’s modified Eagle’s medium (DMEM) (Trace Biosciences) supplemented with 10% foetal bovine serum, 10 mM sodium bicarbonate, penicillin (100 IU/mL), streptomycin (100 μg/mL) and glutamine (4 mM). The normal cell line, MCF-10A was cultured in DMEM:F12 (1:1) cell culture media, 5% heat inactivated horse serum, supplemented with penicillin (50 IU/mL), streptomycin (50 μg/mL), 20mM Hepes, L-glutamine (2 mM), epidermal growth factor (20 ng/mL), hydrocortisone (500 ng/mL), cholera toxin (100 ng/mL) and insulin (10 μg/mL).
(§4) Cells in logarithmic growth were transferred to 96-well plates. Cytotoxicity was determined by plating cells in duplicate in 100 μL medium at a density of 2500–4000 cells/well. On day 0 (24 h after plating), when the cells were in logarithmic growth, 100 μL medium, with or without the test agent, was added to each well. After 72 h drug exposure, growth inhibitory effects were evaluated using the MTT (3-[4,5-dimethylthiazol-2-yl]-2,5-diphenyltetrazolium bromide) assay and absorbance read at 540 nm. Percentage growth inhibition was determined at a fixed drug concentration of 25 μM. A value of 100% was indicative of complete cell growth inhibition. Those analogues showing appreciable percentage growth inhibition underwent further dose-response analysis allowing for the calculation of a GI50 value. This value is the drug concentration at which cell growth is 50% inhibited based on the difference between the optical density values on day 0 and those at the end of drug exposure.

calf thymus DNA (CT-DNA) = test: CT-DNA binding by UV-vis absorption titration; conditions: for Bathochromism Shift (nm) / Hypochromism, (%): CT-DNA, UV-vis absorption titration; for Gibbs Free Energy: interaction with CT-DNA
Protocol: Both theoretical and experimental DNA binding of the synthesised organotin(IV) compounds with DNA were investigated. The interaction of organotin(IV) compounds with CT-DNA was elucidated via UV-visible absorption spectroscopy. […] The absorption spectra of diphenyltin(IV) compounds at a constant concentration (50 μM) in the absence and the presence of different concentrations of CT-DNA are shown in Figure 8. Upon increasing concentrations of CT-DNA, hypochromism and bathochromism occurred at around 350–377 nm indicating strong π–π stacking interactions between the aromatic chromophore of the organotin(IV) compounds and the nitrogeneous pair of the DNA strand [11, 70]. The same hypochromism and bathochromism shifts were also observed in other transitions. In order to compare the binding strength of the organotin(IV) compounds to CT-DNA, the intrinsic binding constants (Kb) were quantitatively determined and are presented in Table 3.
DNA binding experiments were carried out at 25°C. DNA concentration per nucleotide was determined using the molar absorption coefficient (6600 M^−1 cm^−1) at 260 nm. […] Absorption titration experiments were performed maintaining the concentration of the organotin(IV) compounds solutions at 50 µM and gradually increasing the concentration of CT-DNA. The organotin(IV) compounds were dissolved in DMSO and diluted with Tris-HCI buffer at room temperature (25 °C). The solutions were scanned over 230–600 nm. Absorbance values were recorded 10 min after the addition of DNA solution. The binding constant, Kb was determined using the equation: [DNA]/(εa−εf)=[DNA]/(εb−εf)+1/Kb(εb−εf) where [DNA] is the concentration of DNA in base pairs, εa corresponds to the apparent molar extinction coefficient Aabs/[M], εf corresponds to the extinction coefficient for the free organotin [M] and εb corresponds to the extinction coefficient for the fully bound organotin compound.

[2] = tested on: MCF-7 (breast) cancer cells; test: MTT growth inhibition assay, MCF-7; format: cell-based; conditions: MCF-7 cells, 72 h, ± standard error, read-out: Growth Inhibition Concentration, GI50
Protocol: as §1, §2, §3, §4

[3] = tested on: MIA (pancreatic) cancer cells; test: MTT growth inhibition assay, MIA; format: cell-based; conditions: 72 h, ± standard error, read-out: Growth Inhibition Concentration, GI50
Protocol: as §1, §2, §3, §4

| Substance | greater activity than respective Schiff base ([1]; GI50 comparison) [fold] | GI50 [1] [nM] | Bathochromism Shift (nm) (calf thymus DNA (CT-DNA)) | Hypochromism, (%) (calf thymus DNA (CT-DNA)) | Gibbs Free Energy (calf thymus DNA (CT-DNA)) [kcal/mol] | GI50 [2] [nM] | GI50 [3] [nM] |
| --- | --- | --- | --- | --- | --- | --- | --- |
| Diphenyltin(IV) [Ph2Sn(S2MoVa), Diphenyltin(IV) [S-2-Methybenzyl-β-N-(2-hydroxy-3-methoxybenzylmethylene) dithiocarbazate]] | 3 | 840 ± 90 | 6 | 41.06 | -7.91 | 1400 ± 120 | 340 ± 20 |
| Diphenyltin(IV) [Ph2Sn(S4MoVa), Diphenyltin(IV) [S-4-Methybenzyl-β-N-(2-hydroxy-3-methoxybenzylmethylene) dithiocarbazate]] |  | 1000 ± 160 | 4 | 28.25 | -7.41 | 820 ± 140 | 390 ± 30 |

Reference: PMC6413231, “o-Vanillin Derived Schiff Bases and Their Organotin(IV) Compounds: Synthesis, Structural Characterisation, In-Silico Studies and Cytotoxicity” (International Journal of Molecular Sciences, 2019)
